In the supplement of paper PMC10307832:

Experiments:
Test in all cases: relative viability (nuclei count vs DMSO), 5 days (fraction); higher = more cells survive
[1] = tested on: SW 1573
Procedure, shortened: (§1)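 Lung cancer cell lines were pin-tool dosed in 1536-well plates on the day after seeding, with either a lone drug or a fixed anchor-drug dose plus five library-drug doses (not always all listed) in √10 steps. Nuclei were counted on 4× images after 5 days. Relative viability is the ratio of treated-well to vehicle-well nuclei counts, with each value a median of duplicate plates.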

[2] = tested on: NCI-H647
Procedure, shortened: as §1

[3] = tested on: NCI-H520
Procedure, shortened: as §1

[4] = tested on: SW 900
Procedure, shortened: as §1

[5] = tested on: HOP-62
Procedure, shortened: as §1

[6] = tested on: NCI-H441
Procedure, shortened: as §1

[7] = tested on: LOU-NH91
Procedure, shortened: as §1

[8] = tested on: NCI-H1437
Procedure, shortened: as §1

[9] = tested on: NCI-H2126
Procedure, shortened: as §1

[10] = tested on: NCI-H1793
Procedure, shortened: as §1

[11] = tested on: ChaGo-K-1
Procedure, shortened: as §1

[12] = tested on: NCI-H2170
Procedure, shortened: as §1

[13] = tested on: LCLC-103H
Procedure, shortened: as §1

[14] = tested on: NCI-H2023
Procedure, shortened: as §1

[15] = tested on: NCI-H460
Procedure, shortened: as §1

[16] = tested on: NCI-H2009
Procedure, shortened: as §1

[17] = tested on: NCI-H650
Procedure, shortened: as §1

[18] = tested on: NCI-H2405
Procedure, shortened: as §1

[19] = tested on: PC-14
Procedure, shortened: as §1

[20] = tested on: NCI-H23
Procedure, shortened: as §1

[21] = tested on: EPLC-272H
Procedure, shortened: as §1

[22] = tested on: EMC-BAC-2
Procedure, shortened: as §1

[23] = tested on: NCI-H2347
Procedure, shortened: as §1

[24] = tested on: NCI-H727
Procedure, shortened: as §1

In the case of `CCCCCCCCCCCC1=C(O)C(=O)C=C(O)C1=O` [Embelin] + Cc1nc(Nc2ncc(C(=O)Nc3c(C)cccc3Cl)s2)cc(N2CCN(CCO)CC2)n1 [Dasatinib] (partner 0.075 µM), the relative viability ([1]; first compound 0.08 µM) is reported as 0.406, the relative viability ([1]; first compound 0.8 µM) is reported as 0.637 and the relative viability ([1]; first compound 2.53 µM) is reported as 0.458. For the same molecule, the relative viability ([1]; first compound 8 µM) was 0.725, the relative viability ([2]; first compound 0.08 µM) was 0.214 and the relative viability ([2]; first compound 0.8 µM) was 0.242. The relative viability ([2]; first compound 2.53 µM) was 0.123, the relative viability ([2]; first compound 8 µM) was 0.14 and the relative viability ([3]; first compound 0.08 µM) was 0.245. It also gave a relative viability ([3]; first compound 0.8 µM) of 0.188, a relative viability ([3]; first compound 2.53 µM) of 0.307 and a relative viability ([3]; first compound 8 µM) of 0.132. The relative viability ([4]; first compound 0.08 µM) was 0.666, the relative viability ([4]; first compound 0.8 µM) was 0.571 and the relative viability ([4]; first compound 2.53 µM) was 0.546. The relative viability ([4]; first compound 8 µM) was 0.57, the relative viability ([5]; first compound 0.08 µM) was 0.66 and the relative viability ([5]; first compound 0.8 µM) was 0.776. It also gave a relative viability ([5]; first compound 2.53 µM) of 0.68, a relative viability ([5]; first compound 8 µM) of 0.654 and a relative viability ([6]; first compound 0.08 µM) of 0.645. For the same molecule, the relative viability ([6]; first compound 0.8 µM) was 0.633, the relative viability ([6]; first compound 2.53 µM) was 0.686 and the relative viability ([6]; first compound 8 µM) was 0.838. For the same molecule, the relative viability ([7]; first compound 0.08 µM) was 0.567, the relative viability ([7]; first compound 0.8 µM) was 0.624 and the relative viability ([7]; first compound 2.53 µM) was 0.561. For the same molecule, the relative viability ([7]; first compound 8 µM) was 0.531, the relative viability ([8]; first compound 0.08 µM) was 0.407 and the relative viability ([8]; first compound 0.8 µM) was 0.459. It also gave a relative viability ([8]; first compound 2.53 µM) of 0.337, a relative viability ([8]; first compound 8 µM) of 0.275 and a relative viability ([9]; first compound 0.08 µM) of 0.615. It also gave a relative viability ([9]; first compound 0.8 µM) of 0.684, a relative viability ([9]; first compound 2.53 µM) of 0.714 and a relative viability ([9]; first compound 8 µM) of 0.502. For the same molecule, the relative viability ([10]; first compound 0.08 µM) was 0.397, the relative viability ([10]; first compound 0.8 µM) was 0.432 and the relative viability ([10]; first compound 2.53 µM) was 0.446. For the same molecule, the relative viability ([10]; first compound 8 µM) was 0.334, the relative viability ([11]; first compound 0.08 µM) was 0.501 and the relative viability ([11]; first compound 0.8 µM) was 0.576. It also gave a relative viability ([11]; first compound 2.53 µM) of 0.585, a relative viability ([11]; first compound 8 µM) of 0.582 and a relative viability ([12]; first compound 0.08 µM) of 0.649. The relative viability ([12]; first compound 0.8 µM) was 0.806, the relative viability ([12]; first compound 2.53 µM) was 0.694 and the relative viability ([12]; first compound 8 µM) was 0.533. For the same molecule, the relative viability ([13]; first compound 0.08 µM) was 0.453, the relative viability ([13]; first compound 0.8 µM) was 0.517 and the relative viability ([13]; first compound 2.53 µM) was 0.511. It also gave a relative viability ([13]; first compound 8 µM) of 0.405, a relative viability ([14]; first compound 0.08 µM) of 0.565 and a relative viability ([14]; first compound 0.8 µM) of 0.673. For the same molecule, the relative viability ([14]; first compound 2.53 µM) was 0.611, the relative viability ([14]; first compound 8 µM) was 0.556 and the relative viability ([15]; first compound 0.08 µM) was 0.58. It also gave a relative viability ([15]; first compound 0.8 µM) of 0.57, a relative viability ([15]; first compound 2.53 µM) of 0.571 and a relative viability ([15]; first compound 8 µM) of 0.416. For the same molecule, the relative viability ([16]; first compound 0.08 µM) was 0.342, the relative viability ([16]; first compound 0.8 µM) was 0.487 and the relative viability ([16]; first compound 2.53 µM) was 0.243. The relative viability ([16]; first compound 8 µM) was 0.251, the relative viability ([17]; first compound 0.08 µM) was 0.443 and the relative viability ([17]; first compound 0.8 µM) was 0.485. The relative viability ([17]; first compound 2.53 µM) was 0.368, the relative viability ([17]; first compound 8 µM) was 0.383 and the relative viability ([18]; first compound 0.08 µM) was 0.238. The relative viability ([18]; first compound 0.8 µM) was 0.24, the relative viability ([18]; first compound 2.53 µM) was 0.178 and the relative viability ([18]; first compound 8 µM) was 0.215. The relative viability ([19]; first compound 0.08 µM) was 0.257, the relative viability ([19]; first compound 0.8 µM) was 0.396 and the relative viability ([19]; first compound 2.53 µM) was 0.246. For the same molecule, the relative viability ([19]; first compound 8 µM) was 0.315, the relative viability ([20]; first compound 0.08 µM) was 0.82 and the relative viability ([20]; first compound 0.8 µM) was 0.755. The relative viability ([20]; first compound 2.53 µM) was 1.08, the relative viability ([20]; first compound 8 µM) was 0.612 and the relative viability ([21]; first compound 0.08 µM) was 0.393. It also gave a relative viability ([21]; first compound 0.8 µM) of 0.469, a relative viability ([21]; first compound 2.53 µM) of 0.442 and a relative viability ([21]; first compound 8 µM) of 0.277. For the same molecule, the relative viability ([22]; first compound 0.08 µM) was 0.304, the relative viability ([22]; first compound 0.8 µM) was 0.46 and the relative viability ([22]; first compound 2.53 µM) was 0.341. The relative viability ([22]; first compound 8 µM) was 0.291, the relative viability ([23]; first compound 0.08 µM) was 0.332 and the relative viability ([23]; first compound 0.8 µM) was 0.33. It also gave a relative viability ([23]; first compound 2.53 µM) of 0.296, a relative viability ([23]; first compound 8 µM) of 0.309 and a relative viability ([24]; first compound 0.08 µM) of 0.318. It also gave a relative viability ([24]; first compound 0.8 µM) of 0.411, a relative viability ([24]; first compound 2.53 µM) of 0.492 and a relative viability ([24]; first compound 8 µM) of 0.375.
